Laboratory results: publication doi:10.64898/2025.12.08.692997v2 (biorxiv, 2025)
Read-outs that look alike come from different tables or passages of the source.

How the values were obtained:
[1] = molecular target: T1, human EphB2-His ectodomain - human EphrinB2-Fc ectodomain (EphB2-EphrinB2 tetramer) (Homo sapiens, UniProt P29323+P52799); test: biochemical
Target sequence in this assay (P52799 28-229): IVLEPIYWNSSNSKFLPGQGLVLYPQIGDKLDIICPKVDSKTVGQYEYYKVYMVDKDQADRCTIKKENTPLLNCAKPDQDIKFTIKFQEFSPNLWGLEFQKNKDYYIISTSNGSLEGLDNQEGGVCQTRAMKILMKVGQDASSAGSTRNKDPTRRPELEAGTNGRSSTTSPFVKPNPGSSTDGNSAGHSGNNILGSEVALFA
Target sequence in this assay (P29323 19-543): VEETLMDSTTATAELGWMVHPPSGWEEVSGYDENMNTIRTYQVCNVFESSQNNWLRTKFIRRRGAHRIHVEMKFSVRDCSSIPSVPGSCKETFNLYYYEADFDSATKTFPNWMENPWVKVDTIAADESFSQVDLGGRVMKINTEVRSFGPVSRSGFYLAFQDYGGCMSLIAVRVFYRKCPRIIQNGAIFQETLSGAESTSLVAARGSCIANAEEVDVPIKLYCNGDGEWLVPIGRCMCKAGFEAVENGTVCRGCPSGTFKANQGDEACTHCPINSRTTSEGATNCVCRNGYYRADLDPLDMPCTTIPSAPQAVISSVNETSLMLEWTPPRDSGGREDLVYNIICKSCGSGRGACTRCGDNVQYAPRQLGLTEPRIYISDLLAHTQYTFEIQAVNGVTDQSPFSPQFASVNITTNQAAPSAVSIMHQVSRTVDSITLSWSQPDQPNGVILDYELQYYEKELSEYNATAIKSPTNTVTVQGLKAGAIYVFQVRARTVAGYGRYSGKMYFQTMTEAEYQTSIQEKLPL

[2] = molecular target: T1, human EphB2-His ectodomain - human EphrinB2-Fc ectodomain (EphB2-EphrinB2 tetramer); test: biochemical; remark: listed apart in the source
Target sequence in this assay (P52799 28-229): as the sequence (P52799 28-229) above
Target sequence in this assay (P29323 19-543): as the sequence (P29323 19-543) above

[3] = molecular target: T1, human EphB2-His ectodomain - human EphrinB2-Fc ectodomain (EphB2-EphrinB2 tetramer); test: biochemical; conditions: EphrinB2-EphB2 IC50 (Absolute, µM)
Target sequence in this assay (P52799 28-229): as the sequence (P52799 28-229) above
Target sequence in this assay (P29323 19-543): as the sequence (P29323 19-543) above

[4] = molecular target: T1, human EphB2-His ectodomain - human EphrinB2-Fc ectodomain (EphB2-EphrinB2 tetramer); test: biolayer interferometry, AUC; assay type: binding; conditions: read-out: % inhibition at 3.2 μM
Target sequence in this assay (P29323 19-543): as above
Target sequence in this assay (P52799 28-229): as the sequence (P52799 28-229) above

[5] = molecular target: EphrinB2-EphB1 (immobilized human EphrinB2, 25 nM soluble human EphB1) (Homo sapiens, UniProt P52799+P54762); test: biochemical; conditions: read-out: % Inhibited (AUC) Association
Sequence of EphrinB2-EphB1 (immobilized human EphrinB2, 25 nM soluble human EphB1) (P52799 whole entry): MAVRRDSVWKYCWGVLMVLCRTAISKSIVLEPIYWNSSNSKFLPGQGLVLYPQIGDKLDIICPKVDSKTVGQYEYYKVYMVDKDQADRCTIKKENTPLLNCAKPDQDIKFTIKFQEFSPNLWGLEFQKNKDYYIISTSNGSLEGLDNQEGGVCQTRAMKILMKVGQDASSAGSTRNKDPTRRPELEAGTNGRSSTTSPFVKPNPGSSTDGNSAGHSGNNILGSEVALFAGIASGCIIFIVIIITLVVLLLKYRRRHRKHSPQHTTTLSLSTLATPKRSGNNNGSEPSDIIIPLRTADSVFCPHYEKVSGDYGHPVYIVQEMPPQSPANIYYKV
Sequence of EphrinB2-EphB1 (immobilized human EphrinB2, 25 nM soluble human EphB1) (P54762 whole entry): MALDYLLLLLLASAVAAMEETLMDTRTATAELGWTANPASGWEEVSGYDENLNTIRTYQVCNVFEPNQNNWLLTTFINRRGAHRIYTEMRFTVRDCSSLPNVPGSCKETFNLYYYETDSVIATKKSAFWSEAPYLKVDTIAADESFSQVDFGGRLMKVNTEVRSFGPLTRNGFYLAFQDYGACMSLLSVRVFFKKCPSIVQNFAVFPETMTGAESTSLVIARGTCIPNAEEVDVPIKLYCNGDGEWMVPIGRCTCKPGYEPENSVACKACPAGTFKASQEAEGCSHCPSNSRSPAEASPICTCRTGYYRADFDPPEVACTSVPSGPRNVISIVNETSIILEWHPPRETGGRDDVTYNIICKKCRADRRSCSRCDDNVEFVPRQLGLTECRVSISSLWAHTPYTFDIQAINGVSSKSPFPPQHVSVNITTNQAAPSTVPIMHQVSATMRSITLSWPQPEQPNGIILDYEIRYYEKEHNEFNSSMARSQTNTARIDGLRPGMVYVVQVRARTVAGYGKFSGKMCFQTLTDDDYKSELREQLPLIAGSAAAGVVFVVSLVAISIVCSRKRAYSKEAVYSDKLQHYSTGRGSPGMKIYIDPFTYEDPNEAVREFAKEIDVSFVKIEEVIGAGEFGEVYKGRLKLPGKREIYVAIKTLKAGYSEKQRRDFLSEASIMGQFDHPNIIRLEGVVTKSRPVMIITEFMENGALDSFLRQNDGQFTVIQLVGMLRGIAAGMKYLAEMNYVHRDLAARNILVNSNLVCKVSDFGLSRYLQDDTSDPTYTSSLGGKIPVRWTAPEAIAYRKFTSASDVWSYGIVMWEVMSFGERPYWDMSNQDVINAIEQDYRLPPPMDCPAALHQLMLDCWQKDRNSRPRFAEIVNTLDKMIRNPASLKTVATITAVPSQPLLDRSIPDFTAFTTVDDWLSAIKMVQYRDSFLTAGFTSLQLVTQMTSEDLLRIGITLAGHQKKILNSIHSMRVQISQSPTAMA

EphB1-EphrinB2 = EphB1-EphrinB2 (Homo sapiens, UniProt P52799+P54762); test: biolayer interferometry, AUC; assay type: binding; conditions: read-out: % inhibition at 3.2 μM
Sequence of EphB1-EphrinB2 (P54762 18-540 limits assumed): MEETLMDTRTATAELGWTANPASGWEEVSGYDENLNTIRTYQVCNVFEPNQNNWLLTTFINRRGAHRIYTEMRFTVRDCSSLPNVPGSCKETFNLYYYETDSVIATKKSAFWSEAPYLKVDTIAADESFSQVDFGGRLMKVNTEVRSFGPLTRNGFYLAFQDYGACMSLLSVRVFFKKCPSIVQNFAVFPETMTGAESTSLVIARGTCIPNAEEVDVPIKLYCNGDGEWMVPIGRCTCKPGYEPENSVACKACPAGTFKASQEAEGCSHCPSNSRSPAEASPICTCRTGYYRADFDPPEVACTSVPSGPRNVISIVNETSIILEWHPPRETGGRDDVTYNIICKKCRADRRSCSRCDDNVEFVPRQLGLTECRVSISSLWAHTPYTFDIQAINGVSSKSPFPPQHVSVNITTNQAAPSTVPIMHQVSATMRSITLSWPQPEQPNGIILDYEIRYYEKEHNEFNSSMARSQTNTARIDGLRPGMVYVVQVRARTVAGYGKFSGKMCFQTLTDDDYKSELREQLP
Sequence of EphB1-EphrinB2 (P52799 28-229 limits assumed): as the sequence (P52799 28-229) above

[6] = molecular target: human EphB4-His ectodomain - human EphrinB2-Fc ectodomain (EphB4-EphrinB2) (Homo sapiens, UniProt P52799+P54760); test: biolayer interferometry, AUC; assay type: binding; conditions: read-out: % inhibition at 3.2 μM
[7] = molecular target: EphrinB2 of mouse pancreatic stellate cells stimulated with mouse EphB2-Fc-His (Mus musculus, UniProt P52800+P54763); test: % pEphrinB2 by IP and immunoblot; assay type: cell-based
Sequence of EphrinB2 of mouse pancreatic stellate cells stimulated with mouse EphB2-Fc-His (P52800 29-336): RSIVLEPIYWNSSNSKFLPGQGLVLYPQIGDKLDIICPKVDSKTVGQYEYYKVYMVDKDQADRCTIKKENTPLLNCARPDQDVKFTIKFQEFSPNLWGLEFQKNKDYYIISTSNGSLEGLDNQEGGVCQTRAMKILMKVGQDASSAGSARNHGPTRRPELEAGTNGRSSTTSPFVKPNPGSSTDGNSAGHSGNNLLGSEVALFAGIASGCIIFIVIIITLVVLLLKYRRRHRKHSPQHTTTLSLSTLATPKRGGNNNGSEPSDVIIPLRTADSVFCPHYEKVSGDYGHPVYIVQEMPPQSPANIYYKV
Sequence of EphrinB2 of mouse pancreatic stellate cells stimulated with mouse EphB2-Fc-His (P54763 19-540): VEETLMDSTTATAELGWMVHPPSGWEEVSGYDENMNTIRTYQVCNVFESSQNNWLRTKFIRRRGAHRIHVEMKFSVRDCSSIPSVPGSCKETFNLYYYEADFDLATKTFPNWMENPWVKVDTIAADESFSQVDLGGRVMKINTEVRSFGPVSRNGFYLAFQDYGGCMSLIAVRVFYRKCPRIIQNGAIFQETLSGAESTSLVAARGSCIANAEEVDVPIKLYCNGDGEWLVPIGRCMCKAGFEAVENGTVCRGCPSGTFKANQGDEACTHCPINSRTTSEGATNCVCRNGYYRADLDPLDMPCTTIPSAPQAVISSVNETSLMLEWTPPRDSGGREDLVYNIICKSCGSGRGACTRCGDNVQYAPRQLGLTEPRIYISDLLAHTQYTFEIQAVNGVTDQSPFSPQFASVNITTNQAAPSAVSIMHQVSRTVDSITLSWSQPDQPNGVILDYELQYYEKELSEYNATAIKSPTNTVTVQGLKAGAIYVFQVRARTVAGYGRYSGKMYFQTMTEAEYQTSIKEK

[8] = molecular target: T1, human EphB2-His ectodomain - human EphrinB2-Fc ectodomain (EphB2-EphrinB2 tetramer); test: biochemical; remark: listed apart in the source
Target sequence in this assay (P29323 19-543): as the sequence (P29323 19-543) above
Target sequence in this assay (P52799 28-229): as the sequence (P52799 28-229) above

[9] = molecular target: T1, human EphB2-His ectodomain - human EphrinB2-Fc ectodomain (EphB2-EphrinB2 tetramer); test: biolayer interferometry, AUC of concentration series; assay type: binding
Target sequence in this assay (P29323 19-543): as the sequence (P29323 19-543) above
Target sequence in this assay (P52799 28-229): as the sequence (P52799 28-229) above

[10] = molecular target: T1, human EphB2-His ectodomain - human EphrinB2-Fc ectodomain (EphB2-EphrinB2 tetramer); test: biochemical; remark: listed apart in the source
Target sequence in this assay (P52799 28-229): as above
Target sequence in this assay (P29323 19-543): as the sequence (P29323 19-543) above

[11] = molecular target: T1, human EphB2-His ectodomain - human EphrinB2-Fc ectodomain (EphB2-EphrinB2 tetramer); test: biochemical; remark: listed apart in the source
Target sequence in this assay (P52799 28-229): as the sequence (P52799 28-229) above
Target sequence in this assay (P29323 19-543): as the sequence (P29323 19-543) above

[12] = molecular target: T1, human EphB2-His ectodomain - human EphrinB2-Fc ectodomain (EphB2-EphrinB2 tetramer); test: biochemical; remark: listed apart in the source
Target sequence in this assay (P52799 28-229): as the sequence (P52799 28-229) above
Target sequence in this assay (P29323 19-543): as the sequence (P29323 19-543) above

[13] = molecular target: T1, human EphB2-His ectodomain - human EphrinB2-Fc ectodomain (EphB2-EphrinB2 tetramer); test: biochemical; remark: listed apart in the source

`O=C(Oc1c(Cl)cc(Cl)c2cccnc12)c1ccc([N+](=O)[O-])cc1` [4a, 5,7-dichloro-8-quinolinyl 4-nitrobenzoate] showed an IC50 [1] of about 31600 nM and an IC50 [2] of 38000 nM.

With `Oc1c(I)cc(CN2CCOCC2)c2cccnc12` [A20-I] the IC50 [3] was over 1.6 µM, the inhibition at 3.2 µM [4] was 61.8% and the inhibition at 3.2 µM [5] was 32.6%. The inhibition at 3.2 µM (EphB1-EphrinB2) was 36.6% and the inhibition at 3.2 µM [6] was 13.9%.

`Oc1c(Br)cc(CN2CCN(c3ccc(Br)cc3)CC2)c2cccnc12` [BQPB4] was tested, and the inhibition at 3.2 µM [5] was 39.1%, the IC50 [7] was 1600 nM and the IC50 [8] was 280 nM. It also gave a Ki [9] of 2.88 nM.

`CCOc1cc(C(Nc2cc(C)ccn2)c2ccc3cccnc3c2O)ccc1O` (stereo not shown) [SW039498] showed an IC50 [10] of over 3200 nM and an IC50 [11] of over 3200 nM.

Work on `Oc1ccc(CSc2ccccc2)c2cccnc12` [SW160569, G15] yielded a Ki [12] of 3.73 nM.

`O=C(Oc1cccc2cccnc12)c1ccc(F)cc1` [compound 2, 8-quinolinyl 4-fluorobenzoate] showed an IC50 [13] of 100000 nM and an IC50 [2] of over 100000 nM.
